Data: US9328085B2, “Heterocyclic compounds and expansion agents for hematopoietic stem cells” (NISSAN CHEMICAL INDUSTRIES, LTD., priority 2009, dated 2016)

Assays:
[1] = test system: CD34^+ cells; assay: Expansion of CD34+ cells using human cord blood-derived CD34+ cells (Assay Example 1); type: cell-based; details: 100 ng/mL SCF, 7 days, based on the number of CD34^+ cells in the absence of compound
Description: (§1) Human cord blood-derived CD34^+ cells were purchased from Lonza and plated on a 24-well plate (Corning) (10000 cells/1 mL/well). As the culture medium, StemSpan SFEM (StemCell Technologies) containing 100 ng/mL SCF (Wako Pure Chemical Industries) was used, and one of Compounds No. 1 to 72 dissolved in dimethyl sulfoxide was added in an amount of 0.1% (v/v) to a final concentration of 1 or 3 μg/mL. As a positive control, TPO (PeproTech) was used at a final concentration of 10 ng/mL.
(§2) After the cells were incubated in liquid culture at 37° C. for 7 days in a CO2 incubator (5% CO2), the number of viable cells was counted by trypan blue assay. The number of CD34^+CD38^− cells was calculated as follows. After the incubation, the cells in the liquid culture was stained with a CD34 antibody (APC, Becton, Dickinson and Company) and a CD38 antibody (PE, Becton, Dickinson and Company), then washed with PBS(−) containing 2% (v/v) FBS and stained with propidium iodide (Sigma-Aldrich Japan) added to a final concentration of 5 μg/mL. The stained cells were analyzed with a BD FACSCANTO™ II flow cytometer (Becton, Dickinson and Company) to determined the proportions of CD34^+ cells and CD34^+CD38^− cells, which was multiplied by the number of viable cells to calculate the numbers of CD34^+ cells and CD34^+CD38^− cells.
(§3) The expansion efficiencies in the presence of 1 or 3 μg/mL of compounds based on the number of CD34^+ cells in the absence of them are shown in Tables 3-1 and 3-2 on a scale of A for expansion efficiencies of 6 or greater, B for expansion efficiencies of at least 4 and less than 6, and C for expansion efficiencies of at least 2 and less than 4. The expansion efficiencies in the presence of 1 or 3 μg/mL of compounds based on the number of CD34^+CD38^− cells in the absence of them are shown in Tables 4-1 and 4-2 on a scale of A for expansion efficiencies of 10 or greater, B for expansion efficiencies of at least 5 and less than 10, and C for expansion efficiencies of at least 3 and less than 5. Further, in Table 3, the compounds with an expansion efficiency twice or more greater than that of TPO are marked with O.

[2] = test system: CD34^+CD38^− cells; assay: Expansion of CD34+CD38- cells using human cord blood-derived CD34+ cells (Assay Example 1); type: cell-based; details: for Comparison with TPO: 3 μg/mL compound vs TPO 10 ng/mL, CD34^+CD38^− cells; for Expansion efficiency (CD34^+CD38^− cells): 100 ng/mL SCF, 7 days, based on the number of CD34^+CD38^− cells in the absence of compound
Description: as §1, §2, §3

| Structure (SMILES) | Expansion efficiency (CD34^+ cells) ([1]; 3 μg/mL compound) | Comparison with TPO [2] | Expansion efficiency (CD34^+CD38^− cells) ([2]; 3 μg/mL compound) | Expansion efficiency (CD34^+ cells) ([1]; 1 μg/mL compound) | Expansion efficiency (CD34^+CD38^− cells) ([2]; 1 μg/mL compound) |
| --- | --- | --- | --- | --- | --- |
| CC(=NNC(=O)c1ccc(C(=O)NCc2ccc(C(=O)NCCN(CCO)CCO)cc2)s1)c1csc(-c2ccc(C(C)(C)C)cc2)c1O [compound 23] | A (A for expansion efficiencies of 6 or greater) | ∘ | A (A for expansion efficiencies of 10 or greater) |  |  |
| CC(=NNC(=O)c1ccc(C(=O)NCc2ccc(C(=O)NCCN(CCO)CCO)cc2)s1)c1csc(-c2ccc(Br)cc2)c1O [compound 24] | A (A for expansion efficiencies of 6 or greater) | ∘ | A (A for expansion efficiencies of 10 or greater) |  |  |
| CC(=NNC(=O)c1ccc(C(=O)NCc2ccc(C(=O)NCCN3CCNCC3)cc2)s1)c1csc(-c2ccc(Cl)c(Cl)c2)c1O [compound 28] | B (B for expansion efficiencies of at least 4 and less than 6) |  | A (A for expansion efficiencies of 10 or greater) |  |  |
| CC(=NNC(=O)c1ccc(C(=O)NCc2ccc(C(=O)NCCN3CCNCC3)cc2)s1)c1csc(-c2ccc(C(C)(C)C)cc2)c1O [compound 29] | A (A for expansion efficiencies of 6 or greater) | ∘ | A (A for expansion efficiencies of 10 or greater) |  |  |
| CC(=NNC(=O)c1ccc(C(=O)NCc2ccc(C(=O)NCCN3CCNCC3)cc2)s1)c1csc(-c2ccc(Br)cc2)c1O [compound 30] | A (A for expansion efficiencies of 6 or greater) | ∘ | A (A for expansion efficiencies of 10 or greater) |  |  |
| COCCOCCNC(=O)c1ccc(CNC(=O)c2ccc(C(=O)NN=C(C)c3csc(-c4ccc(Cl)c(Cl)c4)c3O)s2)cc1 [compound 31] | C (C for expansion efficiencies of at least 2 and less than 4) |  | A (A for expansion efficiencies of 10 or greater) |  |  |
| COCCOCCNC(=O)c1ccc(CNC(=O)c2ccc(C(=O)NN=C(C)c3csc(-c4ccc(C(C)(C)C)cc4)c3O)s2)cc1 [compound 32] | A (A for expansion efficiencies of 6 or greater) | ∘ | A (A for expansion efficiencies of 10 or greater) |  |  |
| COCCOCCNC(=O)c1ccc(CNC(=O)c2ccc(C(=O)NN=C(C)c3csc(-c4ccc(Br)cc4)c3O)s2)cc1 [compound 33] | A (A for expansion efficiencies of 6 or greater) | ∘ | A (A for expansion efficiencies of 10 or greater) |  |  |
| CCCCOCCOCCNC(=O)c1ccc(CNC(=O)c2ccc(C(=O)NN=C(C)c3csc(-c4ccc(Cl)c(Cl)c4)c3O)s2)cc1 [compound 34] | C (C for expansion efficiencies of at least 2 and less than 4) |  | B (B for expansion efficiencies of at least 5 and less than 10) |  |  |
| CCCCOCCOCCNC(=O)c1ccc(CNC(=O)c2ccc(C(=O)NN=C(C)c3csc(-c4ccc(C(C)(C)C)cc4)c3O)s2)cc1 [compound 35] | C (C for expansion efficiencies of at least 2 and less than 4) |  | B (B for expansion efficiencies of at least 5 and less than 10) |  |  |
| CCCCOCCOCCNC(=O)c1ccc(CNC(=O)c2ccc(C(=O)NN=C(C)c3csc(-c4ccc(Br)cc4)c3O)s2)cc1 [compound 36] | C (C for expansion efficiencies of at least 2 and less than 4) |  | B (B for expansion efficiencies of at least 5 and less than 10) |  |  |
| CCCCCCOCCOCCNC(=O)c1ccc(CNC(=O)c2ccc(C(=O)NN=C(C)c3csc(-c4ccc(Cl)c(Cl)c4)c3O)s2)cc1 [compound 37] | C (C for expansion efficiencies of at least 2 and less than 4) |  | A (A for expansion efficiencies of 10 or greater) |  |  |
| CCCCCCOCCOCCNC(=O)c1ccc(CNC(=O)c2ccc(C(=O)NN=C(C)c3csc(-c4ccc(C(C)(C)C)cc4)c3O)s2)cc1 [compound 38] | C (C for expansion efficiencies of at least 2 and less than 4) |  | A (A for expansion efficiencies of 10 or greater) |  |  |
| CC(=NNC(=O)c1ccc(C(=O)NCc2ccc(C(=O)NCCOCCO)cc2)cc1)c1csc(-c2ccc(C(C)(C)C)cc2)c1O [compound 44] | C (C for expansion efficiencies of at least 2 and less than 4) |  | A (A for expansion efficiencies of 10 or greater) |  |  |
| CC(=O)NCc1ccc(CNC(=O)c2ccc(C(=O)NN=C(C)c3csc(-c4ccc(Cl)c(Cl)c4)c3O)s2)cc1 [compound 52] |  |  |  | A (A for expansion efficiencies of 6 or greater) | A (A for expansion efficiencies of 10 or greater) |
| CC(=O)NCc1ccc(CNC(=O)c2ccc(C(=O)NN=C(C)c3csc(-c4ccc(C(C)(C)C)cc4)c3O)s2)cc1 [compound 53] |  |  |  | C (C for expansion efficiencies of at least 2 and less than 4) | B (B for expansion efficiencies of at least 5 and less than 10) |
| CC(=O)NCc1ccc(CNC(=O)c2ccc(C(=O)NN=C(C)c3csc(-c4ccc(Br)cc4)c3O)s2)cc1 [compound 54] |  |  |  | A (A for expansion efficiencies of 6 or greater) | A (A for expansion efficiencies of 10 or greater) |
| CC(=O)NCc1ccc(CNC(=O)c2ccc(C(=O)NN=C(C)c3csc(-c4ccc(C(F)(F)F)cc4)c3O)s2)cc1 [compound 55] |  |  |  | A (A for expansion efficiencies of 6 or greater) | A (A for expansion efficiencies of 10 or greater) |
| CC(=O)NCc1ccc(CNC(=O)c2ccc(C(=O)NN=C(C)c3csc(-c4ccc(Cl)cc4)c3O)s2)cc1 [compound 56] |  |  |  | A (A for expansion efficiencies of 6 or greater) | A (A for expansion efficiencies of 10 or greater) |
| CC(=O)NCc1ccc(CNC(=O)c2ccc(C(=O)NN=C(C)c3csc(-c4ccc(OC(F)(F)F)cc4)c3O)s2)cc1 [compound 57] | B (B for expansion efficiencies of at least 4 and less than 6) |  | A (A for expansion efficiencies of 10 or greater) |  |  |
| COc1ccc(-c2scc(C(C)=NNC(=O)c3ccc(C(=O)NCc4ccc(CNC(C)=O)cc4)s3)c2O)cc1 [compound 58] |  |  |  | B (B for expansion efficiencies of at least 4 and less than 6) | A (A for expansion efficiencies of 10 or greater) |
| CC(=NNC(=O)c1ccc(C(=O)NCc2ccc(C(=O)NCCOCCO)cc2)s1)c1csc(-c2ccc(Cl)c(Cl)c2)c1O [compound 59] | B (B for expansion efficiencies of at least 4 and less than 6) | ∘ | A (A for expansion efficiencies of 10 or greater) |  |  |
| CC(=NNC(=O)c1ccc(C(=O)NCc2ccc(C(=O)NCCOCCO)cc2)s1)c1csc(-c2ccc(C(F)(F)F)cc2)c1O [compound 62] | A (A for expansion efficiencies of 6 or greater) | ∘ | A (A for expansion efficiencies of 10 or greater) |  |  |
